According to patent US20250288704A1, “CXCR4-LIGANDS FOR DIAGNOSTIC AND THERAPEUTIC USE AND PRECURSORS THEREOF” (priority 2021, published 2025):
Read-outs that look alike come from different tables or passages of the source. Positions of bridges follow the written chain, without caps; N, C: chain ends. Non-standard residues stand in square brackets, D forms with d. Residues, ends and D or L forms follow the SMILES beside them. Groups on a side chain read outwards from the residue. Chains are numbered I, II in the order given. *: point of attachment. DOTA = O=C(O)CN1CCN(CC(=O)O)CCN(CC(=O)*)CCN(CC(=O)O)CC1; dTyr(3-I) = N[C@H](Cc1ccc(O)c(I)c1)C(=O)O; 2Nal = N[C@@H](Cc1ccc2ccccc2c1)C(=O)O; dCit = NC(=O)NCCC[C@@H](N)C(=O)O; dNMeOrn = CN[C@H](CCCN)C(=O)O; 4Amb = NCc1ccc(C(=O)O)cc1; Mercaptoacetyl = O=C(CS)*; 4Abz = Nc1ccc(C(=O)O)cc1; dDap = NC[C@@H](N)C(=O)O

Target: CXCR4 (Homo sapiens, UniProt P61073)
Experiment: Determination of IC50: competition with 125I-Fc-131 on CXCR4-positive Jurkat cells;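 note: test compound at 10^−5 to 10^−11 M competed for 2 h at 8 °C with the radioligand on 400,000 cells per well, bound versus free activity measured by γ-counting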
Type: binding
Parameters: CXCR4-positive Jurkat T lymphocyte cells were grown in Gibco's RPMI 1640 GlutaMAX medium; endogenous in cells; host or cells: Jurkat T lymphocyte cells (whole cells in suspension, 400.000 per tube)
[1] = unlabeled or cold (natGa/natLu) compound vs 125I-Fc-131, Jurkat cells, read-out: IC50

CXCR4, sequence (P61073 whole entry): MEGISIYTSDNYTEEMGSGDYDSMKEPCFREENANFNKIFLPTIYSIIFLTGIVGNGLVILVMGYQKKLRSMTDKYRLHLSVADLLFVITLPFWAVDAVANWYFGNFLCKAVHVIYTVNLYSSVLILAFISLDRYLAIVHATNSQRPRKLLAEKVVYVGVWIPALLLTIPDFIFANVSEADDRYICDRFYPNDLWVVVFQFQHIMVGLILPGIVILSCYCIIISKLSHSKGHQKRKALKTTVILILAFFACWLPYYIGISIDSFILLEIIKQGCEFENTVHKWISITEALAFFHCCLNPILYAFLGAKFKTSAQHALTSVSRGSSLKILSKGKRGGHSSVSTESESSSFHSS
Protocol: For in vitro experiments, cells were counted in a hemocytometer using trypan blue as contrast agent. The cell suspension was centrifuged, and the pellet resuspended in HBSS (+1 wt % BSA) to a concentration of 2 mio cells/mL. […] 200 μL of cell suspension (400.000 cells per well) were added to obtain a final peptide concentration range of 10^−5-10^−11 M. The tubes were cooled for 2 h at 8° C. to prevent internalization. The experiment was stopped by removal of the supernatant. 200 μL HBSS were added onto the cells, the suspension centrifuged, and the supernatant pooled with the respective first fractions. This step was repeated once more before the tubes containing the supernatants and the ones containing the cell pellets were subjected to activity measurement in the γ-counter.

SMILES	IC50 [1]	IC50
C[C@@H](NC(=O)[C@@H](CCCNC(N)=O)NC(=O)[C@@H](CN)NC(=O)CN1CCN(CC(=O)O)CCN(CC(=O)O)CCN(CC(=O)O)CC1)C(=O)Nc1ccc(C(=O)NCCC[C@@H]2C(=O)N[C@@H](CCCNC(=N)N)C(=O)N[C@@H](Cc3ccc4ccccc4c3)C(=O)NCC(=O)N[C@H](Cc3ccc(O)cc3)C(=O)N2C)cc1 [CXCR4-DOTA-5] (cyclo([dY][dNMeOrn]([4Abz-dA-dCit-dDap-DOTA])R[2Nal]G))	21.3 ± 6.64 nM	–
C[C@@H](NC(=O)[C@@H](CCCNC(=N)N)NC(=O)[C@@H](Cc1ccccc1)NC(=O)[C@@H](CO)NC(=O)[C@@H](CO)NC(=O)[C@@H](CO)NC(=O)CS)C(=O)Nc1ccc(C(=O)NCCC[C@@H]2C(=O)N[C@@H](CCCNC(=N)N)C(=O)N[C@@H](Cc3ccc4ccccc4c3)C(=O)NCC(=O)N[C@H](Cc3ccc(O)cc3)C(=O)N2C)cc1 [Tc-CXCR4-4] (I: Mercaptoacetyl-[dS][dS][dS][dF][dR][dA][4Abz] / II: cyclo([dY][dNMeOrn]R[2Nal]G); amide I:C-II:2)	–	3490 ± 502 nM
C[C@@H](NC(=O)[C@@H](CCCNC(=N)N)NC(=O)[C@@H](CN)NC(=O)CN1CCN(CC(=O)O)CCN(CC(=O)O)CCN(CC(=O)O)CC1)C(=O)NCc1ccc(C(=O)NCCC[C@@H]2C(=O)N[C@@H](CCCNC(=N)N)C(=O)N[C@@H](Cc3ccc4ccccc4c3)C(=O)NCC(=O)N[C@H](Cc3ccc(O)c(I)c3)C(=O)N2C)cc1 [CXCR4-DOTA-2] (cyclo([dTyr(3-I)][dNMeOrn]([4Amb-dA-dR-dDap-DOTA])R[2Nal]G))	–	7.03 ± 0.59 nM
C[C@@H](NC(=O)[C@@H](CCCNC(=N)N)NC(=O)[C@@H](CN)NC(=O)CN1CCN(CC(=O)O)CCN(CC(=O)O)CCN(CC(=O)O)CC1)C(=O)NCc1ccc(C(=O)NCCC[C@@H]2C(=O)N[C@@H](CCCNC(=N)N)C(=O)N[C@@H](Cc3ccc4ccccc4c3)C(=O)NCC(=O)N[C@H](Cc3ccc(O)cc3)C(=O)N2C)cc1 [CXCR4-DOTA-1] (cyclo([dY][dNMeOrn]([4Amb-dA-dR-dDap-DOTA])R[2Nal]G))	12.1 ± 2.42 nM	–
CC[C@H](C)[C@@H]([C@@H](CC(=O)N1CCC[C@H]1[C@H](OC)[C@@H](C)C(=O)N[C@H](C)C(O)c1ccccc1)OC)N(C)C(=O)[C@@H](NC(=O)[C@H](C(C)C)N(C)C(=O)OCc1ccc(NC(=O)[C@H](CCCNC(N)=O)NC(=O)[C@@H](NC(=O)CCCCCN2C(=O)CC(SC[C@@H](N)C(=O)NC(CCCNC(=N)N)C(=O)N[C@H](C)C(=O)Nc3ccc(C(=O)NCCC[C@@H]4C(=O)N[C@@H](CCCNC(=N)N)C(=O)N[C@H](Cc5ccc6ccccc6c5)C(=O)NCC(=O)N[C@@H](Cc5ccc(O)cc5)C(=O)N4C)cc3)C2=O)C(C)C)cc1)C(C)C (stereo partly drawn) [CXCR4-MMAE-1]	–	99.8 ± 7.55 nM
C[C@@H](NC(=O)[C@@H](CCCNC(=N)N)NC(=O)[C@@H](CN)NC(=O)CN1CCN(CC(=O)O)CCN(CC(=O)O)CCN(CC(=O)O)CC1)C(=O)Nc1ccc(C(=O)NCCC[C@@H]2C(=O)N[C@@H](CCCNC(=N)N)C(=O)N[C@@H](Cc3ccc4ccccc4c3)C(=O)NCC(=O)N[C@H](Cc3ccc(O)cc3)C(=O)N2C)cc1 [CXCR4-DOTA-3] (cyclo([dY][dNMeOrn]([4Abz-dA-dR-dDap-DOTA])R[2Nal]G))	3.16 ± 0.63 nM	–
